Assay results taken from PubChem BioAssay AID256 (DTP/NCI, 2004).
Where “and” joins values, the source holds several entries; their conditions need not be identical. Equal entries are not always repeated. Toxic doses and inconclusive results are not listed. The calls were made as follows: active = survival T/C of 150% or more; inactive = T/C below 125% in these data.

Test system: CD2F1 mice, L1210 leukemia ip, survival T/C
Experiment: NCI In Vivo Anticancer Drug Screen. Data for tumor model L1210 Leukemia (intraperitoneal) in CD2F1 (CDF1) mice
Conditions: higher = longer survival
Outline: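 Read-out first: treated-group measurement over vehicle-control measurement, expressed as a ratio. Animals bore a transplanted tumor line and were dosed with compound or vehicle.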

[1] = endpoint: mean survival time, dose: 100.0 mg/kg/injection, schedule: Q01DX009 (ip), vehicle: saline with Tween-80
[2] = endpoint: mean survival time, dose: 200.0 mg/kg/injection, schedule: Q01DX009 (ip), vehicle: saline with Tween-80
[3] = endpoint: mean survival time, dose: 100.0 mg/kg/injection, schedule: Q04DX003 (ip), vehicle: saline
[4] = endpoint: mean survival time, dose: 200.0 mg/kg/injection, schedule: Q04DX003 (ip), vehicle: saline
[5] = endpoint: mean survival time, dose: 400.0 mg/kg/injection, schedule: Q04DX003 (ip), vehicle: saline
[6] = endpoint: mean survival time, dose: 100.0 mg/kg/injection, schedule: Q01DX001 (ip), vehicle: saline with Tween-80

Measured: T/C

Nc1ccc(C(=O)Oc2ccc([N+](=O)[O-])cc2)cc1
inactive: [1] 108 % of control | [2] 102 % of control | endpoint: mean survival time, dose: 400.0 mg/kg/injection, schedule: Q01DX009 (ip), vehicle: saline with Tween-80 98 % of control

CNC(C)COc1ccc(O)cc1 (centres undefined)
inactive: endpoint: mean survival time, dose: 100.0 mg/kg/injection, schedule: Q01DX009 (ip), vehicle: saline 110 % of control | [3] 108 % of control | endpoint: mean survival time, dose: 200.0 mg/kg/injection, schedule: Q01DX009 (ip), vehicle: saline 110 % of control | [4] 104 % of control | [5] 114 % of control

CCOC(=O)CCN1C(=O)NC(C)(c2ccccc2)C1=O (centres undefined)
inactive: endpoint: mean survival time, dose: 100.0 mg/kg/injection, schedule: Q01DX009 (ip), vehicle: Klucel (hydroxypropylcellulose) (HPC) 100 % of control | endpoint: mean survival time, dose: 200.0 mg/kg/injection, schedule: Q01DX009 (ip), vehicle: Klucel (hydroxypropylcellulose) (HPC) 98 % of control | endpoint: mean survival time, dose: 400.0 mg/kg/injection, schedule: Q01DX009 (ip), vehicle: Klucel (hydroxypropylcellulose) (HPC) 114 % of control

Cc1noc2nc(-c3ccccc3)cc(N3CCN(C)CC3)c12
inactive: endpoint: median survival time, dose: 12.5 mg/kg/injection, schedule: Q01DX005 (ip), vehicle: other 100 % of control | endpoint: median survival time, dose: 25.0 mg/kg/injection, schedule: Q01DX005 (ip), vehicle: other 103 % of control | endpoint: median survival time, dose: 50.0 mg/kg/injection, schedule: Q01DX005 (ip), vehicle: other 98 % of control | endpoint: median survival time, dose: 100.0 mg/kg/injection, schedule: Q01DX005 (ip), vehicle: other 97 % of control | endpoint: median survival time, dose: 200.0 mg/kg/injection, schedule: Q01DX005 (ip), vehicle: other 98 % of control

CC(=O)NC(C)C1(O)CCCCC1 (centres undefined)
inactive: [3] 100 % of control | [4] 97 % of control | [5] 94 % of control

COc1cccc2c1C(=O)c1c(O)c3c(c(O)c1C2=O)CC(O)(C(C)=O)CC3OC1CC(N)C(O)C(C)O1 (centres undefined)
inactive: endpoint: mean survival time, dose: 0.25 mg/kg/injection, schedule: Q01DX001 (ip), vehicle: saline 112 % of control | endpoint: mean survival time, dose: 0.5 mg/kg/injection, schedule: Q01DX001 (ip), vehicle: saline 109 % of control | endpoint: mean survival time, dose: 0.63 mg/kg/injection, schedule: Q01DX009 (ip), vehicle: water 105 % of control | endpoint: mean survival time, dose: 1.0 mg/kg/injection, schedule: Q01DX001 (ip), vehicle: saline 115 % of control | endpoint: mean survival time, dose: 1.25 mg/kg/injection, schedule: Q01DX009 (ip), vehicle: water 108 % of control | endpoint: mean survival time, dose: 2.0 mg/kg/injection, schedule: Q01DX001 (ip), vehicle: saline 121 % of control | endpoint: mean survival time, dose: 2.5 mg/kg/injection, schedule: Q01DX009 (ip), vehicle: water 115 % of control and 105 % of control | endpoint: mean survival time, dose: 5.0 mg/kg/injection, schedule: Q01DX009 (ip), vehicle: water 105 % of control | endpoint: mean survival time, dose: 10.0 mg/kg/injection, schedule: Q01DX009 (ip), vehicle: water 117 % of control | endpoint: mean survival time, dose: 20.0 mg/kg/injection, schedule: Q01DX009 (ip), vehicle: water 117 % of control and 105 % of control | endpoint: mean survival time, dose: 40.0 mg/kg/injection, schedule: Q01DX009 (ip), vehicle: water 117 % of control | endpoint: mean survival time, dose: 80.0 mg/kg/injection, schedule: Q01DX009 (ip), vehicle: water 105 % of control

CCO[C@@H]1c2cc3c(cc2[C@@H](c2cc(OC)c(O)c(OC)c2)[C@H]2C(=O)OC[C@@H]21)OCO3
inactive: endpoint: median survival time, dose: 0.65 mg/kg/injection, schedule: Q01DX009 (ip), vehicle: saline with Tween-80 108 % of control | endpoint: median survival time, dose: 1.25 mg/kg/injection, schedule: Q01DX009 (ip), vehicle: saline with Tween-80 109 % of control | endpoint: median survival time, dose: 2.5 mg/kg/injection, schedule: Q01DX009 (ip), vehicle: saline with Tween-80 106 % of control | endpoint: median survival time, dose: 5.0 mg/kg/injection, schedule: Q01DX009 (ip), vehicle: saline with Tween-80 101 % of control | endpoint: median survival time, dose: 10.0 mg/kg/injection, schedule: Q01DX009 (ip), vehicle: saline with Tween-80 100 % of control and 109 % of control | endpoint: median survival time, dose: 20.0 mg/kg/injection, schedule: Q01DX009 (ip), vehicle: saline with Tween-80 94 % of control | endpoint: median survival time, dose: 40.0 mg/kg/injection, schedule: Q01DX009 (ip), vehicle: saline with Tween-80 97 % of control

C[CH2][Sn]([c]1ccccc1)([c]1ccccc1)[c]1ccccc1
inactive: endpoint: mean survival time, dose: 12.5 mg/kg/injection, schedule: Q04DX003 (ip), vehicle: saline with Tween-80 97 % of control | endpoint: mean survival time, dose: 25.0 mg/kg/injection, schedule: Q04DX003 (ip), vehicle: saline with Tween-80 100 % of control | endpoint: mean survival time, dose: 50.0 mg/kg/injection, schedule: Q04DX003 (ip), vehicle: saline with Tween-80 94 % of control

C[CH2][Sn]1([CH2]C)[O]CC2OC(n3cc(C)c(=O)[nH]c3=O)CC2[O]1 (centres undefined)
inactive: endpoint: mean survival time, dose: 0.78 mg/kg/injection, schedule: Q01DX005 (ip), vehicle: other 94 % of control | endpoint: mean survival time, dose: 1.56 mg/kg/injection, schedule: Q01DX005 (ip), vehicle: other 104 % of control | endpoint: mean survival time, dose: 3.13 mg/kg/injection, schedule: Q01DX005 (ip), vehicle: other 110 % of control | endpoint: mean survival time, dose: 6.25 mg/kg/injection, schedule: Q01DX005 (ip), vehicle: other 107 % of control

CCCCCCCCCCCC[S+](C)C
inactive: endpoint: mean survival time, dose: 10.0 mg/kg/injection, schedule: Q04DX003 (ip), vehicle: Klucel (hydroxypropylcellulose) (HPC) 107 % of control | endpoint: mean survival time, dose: 20.0 mg/kg/injection, schedule: Q04DX003 (ip), vehicle: Klucel (hydroxypropylcellulose) (HPC) 103 % of control | endpoint: mean survival time, dose: 40.0 mg/kg/injection, schedule: Q04DX003 (ip), vehicle: Klucel (hydroxypropylcellulose) (HPC) 98 % of control

Cc1c(Cl)c(C)c(Cl)c(O)c1Cl (tested in a mixture with another compound)
inactive: endpoint: mean survival time, dose: 50.0 mg/kg/injection, schedule: Q01DX005 (ip), vehicle: saline with Tween-80 97 % of control | endpoint: mean survival time, dose: 100.0 mg/kg/injection, schedule: Q01DX005 (ip), vehicle: saline with Tween-80 91 % of control

[Br][Ge]([c]1ccccc1)([c]1ccccc1)[c]1ccccc1
inactive: endpoint: mean survival time, dose: 50.0 mg/kg/injection, schedule: Q01DX009 (ip), vehicle: saline with Tween-80 91 % of control | [1] 91 % of control | [2] 86 % of control

Oc1cc2ccc3c(c2cc1O)CCc1cn[nH]c1-3
inactive: endpoint: mean survival time, dose: 25.0 mg/kg/injection, schedule: Q01DX001 (ip), vehicle: saline with Tween-80 104 % of control | endpoint: mean survival time, dose: 50.0 mg/kg/injection, schedule: Q01DX001 (ip), vehicle: saline with Tween-80 111 % of control | [6] 92 % of control

COC(=O)CCS(=O)(=O)CCC(=O)OC
inactive: endpoint: mean survival time, dose: 100.0 mg/kg/injection, schedule: Q04DX003 (ip), vehicle: Klucel (hydroxypropylcellulose) (HPC) 103 % of control | endpoint: mean survival time, dose: 200.0 mg/kg/injection, schedule: Q04DX003 (ip), vehicle: Klucel (hydroxypropylcellulose) (HPC) 100 % of control | endpoint: mean survival time, dose: 400.0 mg/kg/injection, schedule: Q04DX003 (ip), vehicle: Klucel (hydroxypropylcellulose) (HPC) 103 % of control

CC(=O)NC(CC(C)C)C(=O)O.CC(=O)NC(CC(C)C)C(=O)O.[NH-]C1CCCCC1[NH-].[Pt+2] (centres undefined)
inactive: endpoint: median survival time, dose: 3.12 mg/kg/injection, schedule: Q04DX003 (ip), vehicle: saline 97 % of control | endpoint: median survival time, dose: 6.25 mg/kg/injection, schedule: Q04DX003 (ip), vehicle: saline 100 % of control | endpoint: median survival time, dose: 12.5 mg/kg/injection, schedule: Q04DX003 (ip), vehicle: saline 97 % of control | endpoint: median survival time, dose: 25.0 mg/kg/injection, schedule: Q04DX003 (ip), vehicle: saline 100 % of control | endpoint: median survival time, dose: 50.0 mg/kg/injection, schedule: Q04DX003 (ip), vehicle: saline 104 % of control | endpoint: median survival time, dose: 100.0 mg/kg/injection, schedule: Q04DX003 (ip), vehicle: saline 105 % of control | endpoint: median survival time, dose: 200.0 mg/kg/injection, schedule: Q04DX003 (ip), vehicle: saline 108 % of control

CC(=O)Nc1ccc2c(c1)C(=O)c1cc(NC(C)=O)ccc1-2
inactive: [6] 98 % of control | endpoint: mean survival time, dose: 200.0 mg/kg/injection, schedule: Q01DX001 (ip), vehicle: saline with Tween-80 111 % of control | endpoint: mean survival time, dose: 400.0 mg/kg/injection, schedule: Q01DX001 (ip), vehicle: saline with Tween-80 98 % of control
